The results in this text go back to US20110212908A1, “TOPICAL COMPOSITIONS AND THE USE THEREOF” (priority 2005, published 2011).

Each structure is given as a SMILES string.

For the test, the system named is Pseudomonas. The experiment in a line: Inhibition of adhesion of Pseudomonas strains P1, P2, P3 on canine corneocytes. In kind it is cell-based. The settings on record: monosaccharides at 0.05% and 0.1% in PBS, vs positive control without monosaccharides (100%). How it is done: A study comparing the inhibition, by monosaccharides, of the adhesion of three different strains of Pseudomonas, P1, P2, P3, was conducted on canine corneocytes. The three monosaccharides studied are respectively D-galactose, D-mannose and L-rhamnose.
The three strains of Psedomonas were taken from dogs with infectious otitis. Corneocytes were taken from six different healthy dogs using D-squame™-brand adhesive pads, sold by the CuDerm™ Company.
Bacterial suspensions were produced, each containing one of the three strains P1, P2 or P3, and PBS (phosphate-buffered saline) with or without monosaccharides at two concentrations (0.05% and 0.1%). These suspensions were each placed on a corneocyte layer. These layers were then incubated in a humidity chamber. After incubation, the corneocytes were washed and stained. The adherent Pseudomonas were then quantified by computer-assisted image analysis.
The percentage of adherence of the strains in the presence of monosaccharides was then calculated with respect to the percentage of adherence of the strains without monosaccharides (positive control).
The adherence percentages were compared for the three strains P1 to P3 with respect to the positive control (100%).
Consider `O=C[C@H](O)[C@@H](O)[C@@H](O)[C@H](O)CO` [D-galactose], for which the “mean inhibition percentage for the three Pseudomonas strains” value was determined as 25.6%. The result for `O=C[C@@H](O)[C@@H](O)[C@H](O)[C@H](O)CO` [D-mannose] reads 19.4%. As for `C[C@H](O)[C@H](O)[C@@H](O)[C@@H](O)C=O` [L-rhamnose], the “mean inhibition percentage for the three Pseudomonas strains” value is 30.8%.
